Measured values as given in US20040001888A1, “Solid dosage forms for rapid dissolution of poorly soluble drugs” (BioPharm Solutions Inc., priority 2002, published 2004).
Values after ≈ are worked out from the molar mass of the structure shown. Where two headings read alike, the source gives them in different places.

Key:
[1] = Size distribution of drug-lipid droplets after dissolution (sub-micron particle sizer); format: physicochemical; settings: triamterene from active-release tablets
Protocol: The morphologies of triamterene after dissolution in 0.1 M HCl and in water were characterized using a sub-micron particle sizer. The aliquots collected at the end of dissolution were centrifuged under the same conditions as in Example 4 prior to measurement. […] The impregnated powder was suspended in 900 ml PBS buffer at 37° C. with stirring at 100 rpm. […] The aliquots were collected at programmed time intervals, followed by centrifugation at 1000 rpm in an Eppendorf tube for 1 min.

[2] = Water dispersity of triamterene-Gelucire 44/14 melts; format: physicochemical; settings: 30 mg triamterene in melted Gelucire, drug-lipid melt in 900 ml water
Protocol: To examine the compositions described above, triamterene was used as a model drug. […] In experiment, 30 mg triamterene was dissolved in various amounts of melted Gelucire to make the drug concentration to be 5%, 7.5%, 10% 12.5% 15% and 20%, respectively. Then the drug-lipid melts were dissolved in 900 ml of water. Up to 10% of triamterene in Gelucire, the drug was dispersed in water without precipitates. At higher drug contents (i.e. less lipids), precipitates were observed under a microscope. Drug concentration (in Gelucire) of 10% was selected-for later experiments.

[3] = cited from earlier work

For Nc1nc(N)c2nc(-c3ccccc3)c(N)nc2n1 [triamterene], the “mean diameter of droplets” value ([1]; dissolution in water) was 277 nm, the particles after dissolution ([1]; dissolution medium 0.1 M HCl) was “no particles were detected” and the “drug concentration in Gelucire dispersed in water without precipitates” value [2] was “Up to 10%”. The solubility ([3]; pH 1 buffer) was 321 µg/mL (≈ 1270 µM) and the solubility ([3]; pH 7) was 45 µg/mL (≈ 178 µM).
